# Tested on: HMG-CoA reductase
# Assay: HepG2 cell culture model - HMG-CoA reductase suppression assay
# Format: cell-based
# Conditions: HepG2 cells, 4 hours of incubation at 37°, decrease in specific activity vs. vehicle controls
# Protocol: HepG2 Cell Culture Model - HMG-CoA Reductase Suppression Assay
# HMG-CoA reductase suppression in HepG2 cells was conducted by growing cells in RPMT-1640 plus 10% FBS on 100 mm plates, and when cells reached approximately 75% confluency, inducing with LDS (as described above) for 16 hours prior to assays. Compounds were added using dimethylsulfoxide vehicle (0.5% v/v, final) and after 4 hours of incubation at 37°, cells were harvested by scraping. Cell pellets were rinsed and lysed by sonication in 1.7 ml cold 50 mM imidazole-HCl, pH 7.2, 50 mM NaCl, 10 mM EDTA, 10 mM EGTA, 5mM DTT, and 40 µM leupeptin). Lysates were centrifuged at 150 x g and the supernatant was centrifuged at 100,000 x g in a Beckman airfuge to isolate the post-nuclear total membrane fraction. The membranes were resuspended in 50 mM imidazole-HCl, pH 7.2, 250 mM NaCl, 5 mM DTT, and 20 µM leupeptin and used for the assay of HMG-CoA reductase activity by the radiochemical procedure as described previously by Parker et al., J. Biol. Chem., 264: 4877-4887, (1989). Values were normalized for protein content by the Lowry method as cited previously (ibid). HMG-CoA reductase percent suppression was calculated as the decrease in specific activity of HMG-CoA reductase for treated cells vs. controls receiving vehicle. Averages of duplicate cell determinations assayed in duplicate were taken.
row,Molecule,HMG-CoA Reductase Suppression % 10µM
1,"4-[(5,9,13-Trimethyl-4(E), 8(E),12-tetradecatrienyl)oxy]benzenemethanol [Example 21]",9%
2,"CC(C)=CCC/C(C)=C/CC/C(C)=C/CCCOc1ccc(O)cc1 [Example 8, 4-[(5,9,13-Trimethyl-4(E), 8(E),12-tetradecatrienyl)oxy]phenol]",29%
3,"CC(C)=CCC/C(C)=C/CC/C(C)=C/CCOc1ccc(O)c(C)c1C [Example 10, 2,3-Dimethyl-4-[(4,8,12-Trimethyl-3(E),7(E), 11-tridecatrienyl)oxy]phenol]",38%
4,"CC(C)=CCC/C(C)=C/CC/C(C)=C/CCCOc1ccc(O)c(C)c1C [Example 11, 2,3-Dimethyl-4-[(5,9,13-Trimethyl-4(E), 8(E), 12-tetradecatrienyl)oxy]phenol]",53%
5,"CC(C)=CCCC(C)=CCCC(C)=CCCCOc1c(C)cc(O)cc1C [Example 13, 3,5-Dimethyl-4-[(5,9,13-Trimethyl-4,8, 12-tetradecatrienyl)oxy]phenol]",45%
6,"CC(C)=CCC/C(C)=C/CC/C(C)=C/CCCOc1c(C)cc(OC(N)=O)cc1C [Example 14, 3,5-Dimethyl-4-[(5,9,13-Trimethyl-4(E), 8(E), 12-tetradecatrienyl)oxy]phenyl carbamate]",21%

# Tested on: cholesterol biosynthesis in HepG2 cells
# Assay: HepG2 cell culture model - 14C-acetate incorporation assay (cholesterol synthesis)
# Format: cell-based
# Conditions: 3-4 hours incubation, 2-14C-acetate incorporation into digitonin-precipitable sterols, vs. vehicle controls
# Protocol: HepG2 Cell Culture Model - 14C-Acetate Incorporation Assay
# After 16 hours in LDS containing media, test compounds were added in dimethylsulfoxide vehicle (0.5% v/v final conc.) for an incubation period of 3-4 hours. Cholesterol synthesis was then directly determined by 2-14C-acetate (1.8 mCi/mmol, 0.5 µCi/ml) incorporation for 30 to 60 minutes (previously shown to be time-linear) into total digitonin-precipitable sterols. […] Percent inhibition was calculated from the average of duplicates vs. triplicate vehicle controls conducted simultaneously.
row,Molecule,Sterol Biosynthesis % Inhibition 10µM
1,"1-(4-Hydroxyphenyl)-6,10,14-Trimethyl-5(E), 9(E), 13-Pentadecatrien-1- One [Example 35]",78%
2,"2-Hydroxy-4,6-Dimethyl-5-[(5,9,13-Trimethyl-4(E), 8(E), 12-Tetradecatrienyl)oxy]-1,3-Benzenedimethanol [Example 17]",72%
3,"3,5-Dimethoxy-4-[(5,9,13-Trimethyl-4(E), 8(E), 12-tetradecatrienyl)oxy]phenol [Example 16]",66%
4,"4-[2-(5,9,13)-Trimethyl-4(E), 8(E), 12-tetradecatrienyl)-1,3-dithian-2-yl]phenol [Example 34]",43%
5,"4-[(5,9,13-Trimethyl-4(E), 8(E),12-tetradecatrienyl)oxy]benzenemethanol [Example 21]",64%

# Same assay, conditions: Homo sapiens, 3-4 hours incubation, 2-14C-acetate incorporation into digitonin-precipitable sterols, vs. vehicle controls, read-out: Sterol Biosynthesis % Inhibition 10µM
row,Molecule,inhibition at 10 µM
1,"CC(C)=CCC/C(C)=C/CC/C(C)=C/CCCOc1ccccc1 [Example 5, (5,9,13-Trimethyl-4(E), 8(E),12-tetradecatrienyl)oxy benzene]",12%
2,"CC(C)=CCC/C(C)=C/CC/C(C)=C/CCCOc1ccccc1O [Example 6, 2-[(5,9,13-Trimethyl-4(E), 8(E),12-tetradecatrienyl)oxy]phenol]",10%
3,"CC(C)=CCC/C(C)=C/CC/C(C)=C/CCCOc1cccc(O)c1 [Example 7, 3-[(5,9,13-Trimethyl-4(E), 8(E),12-tetradecatrienyl)oxy]phenol]",38%
4,"CC(C)=CCC/C(C)=C/CC/C(C)=C/CCCOc1ccc(O)cc1 [Example 8, 4-[(5,9,13-Trimethyl-4(E), 8(E),12-tetradecatrienyl)oxy]phenol]",71%
5,"CC(C)=CCC/C(C)=C/CC/C(C)=C/COc1ccc(O)c(C)c1C [Example 9, 2,3-Dimethyl-4-[(3,7,11-Trimethyl-2(E), 6(E), 10-dodecatrienyl)oxy]phenol]",36%
6,"CC(C)=CCC/C(C)=C/CC/C(C)=C/CCOc1ccc(O)c(C)c1C [Example 10, 2,3-Dimethyl-4-[(4,8,12-Trimethyl-3(E),7(E), 11-tridecatrienyl)oxy]phenol]",58%
7,"CC(C)=CCC/C(C)=C/CC/C(C)=C/CCCOc1ccc(O)c(C)c1C [Example 11, 2,3-Dimethyl-4-[(5,9,13-Trimethyl-4(E), 8(E), 12-tetradecatrienyl)oxy]phenol]",64%
8,"CC(C)=CCCC(C)=CCCC(C)=CCCCOc1c(C)cc(O)cc1C [Example 13, 3,5-Dimethyl-4-[(5,9,13-Trimethyl-4,8, 12-tetradecatrienyl)oxy]phenol]",70%
9,"CC(C)=CCC/C(C)=C/CC/C(C)=C/CCCOc1c(C)cc(OC(N)=O)cc1C [Example 14, 3,5-Dimethyl-4-[(5,9,13-Trimethyl-4(E), 8(E), 12-tetradecatrienyl)oxy]phenyl carbamate]",65%
10,"CC(C)=CCC/C(C)=C/CC/C(C)=C/CCCOc1c(C)cc(O)c(C)c1C [Example 15, 2,3,5-Trimethyl-4-[(5,9,13-Trimethyl-4(E),8(E), 12-tetradecatrienyl)oxy] phenol]",48%
11,"CC(C)=CCC/C(C)=C/CC/C(C)=C/CCCOc1ccc(O)c(CCO)c1 [Example 18, 2-Hydroxy-5-[(5,9,13-Trimethyl-4(E), 8(E), 12-tetradecatrienyl)oxy]benzene ethanol]",64%
12,"CC(C)=CCC/C(C)=C/CC/C(C)=C/CCCOc1c(F)c(F)c(O)c(F)c1F [Example 19, 2,3,5,6-Tetrafluoro-4-[(5,9,13-Trimethyl-4(E), 8(E)-,12-tetradecatrienyl)oxy]phenol]",55%
13,"CC(=O)c1cc(O)ccc1OCCC/C=C(\C)CC/C=C(\C)CCC=C(C)C [Example 20, 1-[5-Hydroxy-2-(5,9,13-Trimethyl-4(E), 8(E),12-tetradecatrienyloxy)phenyl]ethanone]",69%
14,"CC(C)=CCC/C(C)=C/CC/C(C)=C/CCCOc1cccc(CO)c1 [Example 22, 3-[(5,9,13-Trimethyl-4(E), 8(E),12-Tetradecatrienyl)oxy]benzenemethanol]",73%
15,"CC(C)=CCC/C(C)=C/CC/C(C)=C/CCCOc1ccc(C(N)=O)cc1 [Example 23, 4-[(5,9,13-Trimethyl-4(E),8(E),12-tetradecatrienyl)oxy]benzamide]",42%
16,"CC(C)=CCC/C(C)=C/CC/C(C)=C/CCCOc1ccc(N)cc1 [Example 24, 4-[(5,9,13-Trimethyl-4(E), 8(E),12-tetradecatrienyl)oxy]aniline]",65%
17,"CC(C)=CCC/C(C)=C/CC/C(C)=C/CCCOc1c(C)cc(N)cc1C [Example 26, 3,5-Dimethyl-4-[(5,9,13-Trimethyl-4(E), 8(E),12-tetradecatrienyl)oxy] aniline]",51%
18,"COC(=O)Nc1cc(C)c(OCCC/C=C(\C)CC/C=C(\C)CCC=C(C)C)c(C)c1 [Example 27, N-[[3,5-Dimethyl-4-[(5,9,13-Trimethyl-4(E), 8(E), 12-tetradecatrienyl)oxy]]phenyl]methyl carbamate]",47%
19,"CC(C)=CCC/C(C)=C/CC/C(C)=C/CCCOc1ccc(S(N)(=O)=O)cc1 [Example 28, 4-[(5,9,13-Trimethyl-4(E), 8(E),12-Tetradecatrienyl)oxy] benzenesulfonamide]",58%
20,"CC(C)=CCC/C(C)=C/CC/C(C)=C/CCCOc1ccc(B2OB(c3ccc(OCCC/C=C(\C)CC/C=C(\C)CCC=C(C)C)cc3)OB(c3ccc(OCCC/C=C(\C)CC/C=C(\C)CCC=C(C)C)cc3)O2)cc1 [Example 29, 2,4,6-Tris-[4-[(5,9,13-Trimethyl-4(E), 8(E),12-tetradecatrienyl)oxy]phenyl]boroxin]",99%
21,"CC(C)=CCC/C(C)=C/CC/C(C)=C/CCC[S+]([O-])c1ccc(O)cc1 (stereo not shown) [Example 31, 4-[(5,9,13-trimethyl-4(E),8(E),12-tetradecatrienyl)sulfinyl]phenol]",47%
22,"CC(C)=CCC/C(C)=C/CC/C(C)=C/CCCS(=O)(=O)c1ccc(O)cc1 [Example 32, 4-[(5,9,13-trimethyl-4(E),8(E),12-tetradecatrienyl)sulfonyl]phenol]",38%
23,"CC(C)=CCC/C(C)=C/CC/C(C)=C/CCCCc1ccc(O)cc1 [Example 33, 4-[6,10,14-Trimethyl-5(E), 9(E), 13-Pentadecatrienyl]phenol]",50%
24,"CC(C)=CCC/C(C)=C/CC/C(C)=C/CCCNc1ccc(O)cc1 [Example 36, 4-[(5,9,13-Trimethyl-4(E), 8(E),12-tetradecatrienyl)amino]phenol]",43%
25,"CC(C)=CCC/C(C)=C/CC/C(C)=C/CCCN(C(=O)OC(C)(C)C)c1ccc(O)cc1 [Example 37, 1,1-Dimethylethyl-(4-Hydroxyphenyl)-(5,9,13-Trimethyl-4(E), 8(E), 12-tetradecatrienyl) carbamate]",79%
26,"CC(C)=CCC/C(C)=C/CC/C(C)=C/CCC(C)(C)Oc1ccc(O)cc1 [Example 39, 4-[(1,1,5,9,13-Pentamethyl-4(E), 8(E), 12-tetradecatrienyl)oxy]phenol hydrate]",37%
